Laboratory results published in US20040266749A1, “Methods for cystic fibrosis disease assessment and methods for treating anaerobic P. aeruginosa biofilms in cystic fibrosis disease” (priority 2002, published 2004).

System: P. aeruginosa rhlR mutant anaerobic biofilm
Experiment: Anaerobic biofilm protection of rhlR mutant bacteria by carboxy-PTIO (confocal LIVE/DEAD viability)
Type: cell-based, Pseudomonas aeruginosa
Conditions: 5 mM carboxy-PTIO
Description: (b) Confocal examination of biofilms. For biofilm architecture examination, circular coverslips are glued to the bottom of 35×10 mm polystyrene tissue culture dishes with small holes in the base (Falcon). The plates are sterilized overnight by UV irradiation. Three ml of aerobic L-broth, aerobic LBN or anaerobic LBN is inoculated with ˜10^7 CFU of overnight L-broth grown culture. After 24 hr at 37° C., biofilms are washed with saline and stained with 0.5 ml of a LIVE/DEAD BacLight bacterial viability stain (Molecular Probes, Inc., Eugene, Oreg.). Images are acquired on a Zeiss LSM 510 laser scanning confocal unit attached to an Axiovert microscope using a 63×1.4 NA oil immersion objective. For two color images, samples are scanned sequentially at 488 nm and 546 nm. Syto 9 (green fluorescence) is detected through a 505-530 nm bandpass filter and propidium iodine (red fluorescence) is detected through a 560 nm longpass filter and presented in two channels of a 512×512 pixel, 8-bit image.
(a) Anaerobic biofilm protection by 2-(4-Carboxyphenyl)-4,4,5,5-tetramethylimidazoline-1-oxyl-3-oxide (carboxy-PTIO). Biofilms of rhlR mutant bacteria are grown anaerobically in the presence vs. absence of 5 mM carboxy-PTIO (Molecular Probes, Eugene, Oreg.), an NO scavenger. […]

CC1(C)N([O])C(c2ccc(C(=O)O)cc2)=[N+]([O-])C1(C)C [carboxy-PTIO, 2-(4-Carboxyphenyl)-4,4,5,5-tetramethylimidazoline-1-oxyl-3-oxide]
Biofilm zone in which protection is primarily observed (top of the biofilm) (anaerobic rhlR mutant biofilm, sagittal sectioning, FIG. 3B line 2 vs. 1): 10-15 μm | Protection of anaerobic rhlR mutant biofilm bacteria from cell death (viability) (rhlR mutant grown anaerobically as biofilm, FIG. 3A panels 2 vs. 1): protected the rhlR mutant
